Holding throughout (assay): NCI-60 cell line screen, 48 h
For test [1], the system named is IGROV-1.
The test system of test [2] is SK-MEL-5.
Test [3] concerns SN12C.
For test [4], the system named is A498.
Test [5] concerns OVCAR-4.
For test [6], the system named is U-251.
Test [7] has as its system SNB-19.
Test [8] concerns Hs-578T.
Test [9] has as its system UO-31.
The test system of test [10] is PC-3.
The test system of test [11] is CAKI-1.
Test [12] has as its system NCI/ADR-RES.
The test system of test [13] is ACHN.
For test [14], the system named is Malme-3M.
In test [15] the test system is HOP-92.
The subject of test [16] is SNB-75.
The test system of test [17] is UACC-257.
Test [18] deals with OVCAR-3.
Test [19] concerns HCC 2998.

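1) Cells in 96-well plates. 2) Compound, 48 h, 5 concentrations. 3) Linear interpolation between surrounding doses. 4) Unreached endpoint = highest concentration. Abbreviation: GI50, concentration required for 50% inhibition of growth.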 Calls of active or inactive are those of the source. Rule as the data show it: active = GI50 up to about 1.1 µM and inactive = higher. Where a SMILES comes first, the peptide text is derived from it.

Take `Cc1c(NC(=O)Nc2c(Cl)cccc2Cl)c(=O)n(-c2ccccc2)n1C`: the GI50 in [1], in test [2], in test [3], in test [4], in [5] and in test [6] was > 100 µM (inactive) in each case. Further, the GI50 in [7], in test [8], in [9], in [10], in test [11] and in [12] was > 100 µM (inactive) in each case. In addition, the GI50 in [13], in [14], in test [15], in test [16], in [17] and in test [18] was > 100 µM (inactive) each time.

On to `Cc1cn2c(/C=N/NC(=N)N)c(-c3ccc(Cl)c([N+](=O)[O-])c3)nc2s1`, for which the GI50 in test [1] was 1.03 µM (active); in test [2], 1.56 µM (inactive); in test [3], 0.705 µM (active); in test [4], 0.07 µM (active); in [5], 1.55 µM (inactive); in [6], 0.268 µM (active). The GI50 in test [8] was 0.973 µM (active); in test [9], 1.88 µM (inactive); in [10], 1.58 µM (inactive); in test [11], 3.36 µM (inactive); in test [12], > 28.5 µM (inactive); in test [13] it was 1.76 µM (inactive). For the same compound, the GI50 in [14] is 1.83 µM (inactive); in test [15] it was 1.46 µM (inactive); in [16] it was 1.27 µM (inactive); in [17], 0.178 µM (active); in [18], 1.13 µM (inactive).

As to `CC1(c2ccc(Cl)cc2)c2ccccc2C(=O)N1CCCN1C(=O)c2ccccc2C1=O` (centres undefined), the GI50 in test [1] is 9.33 µM (inactive); in [2] it was 16.4 µM (inactive); in [3], > 100 µM (inactive); in [4] it was > 100 µM (inactive); in test [5], 61.8 µM (inactive); in test [6], 52.8 µM (inactive). Moreover, the GI50 is 18.3 µM (inactive) in test [7]; 35.4 µM (inactive) in test [8]; 39.9 µM (inactive) in [9]; 83 µM (inactive) in test [10]; 86.3 µM (inactive) in [11]; 19.9 µM (inactive) in [12]. Moreover, the GI50 in test [13] is 29.6 µM (inactive); in test [15], 73.6 µM (inactive); in test [16], 58.9 µM (inactive); in test [17] it was 51.8 µM (inactive); in test [18], 32.7 µM (inactive).

As to `O=[N+]([O-])c1ccc(NS(=O)(=O)C(F)(F)F)cc1`, the GI50 in test [1] is 85.1 µM (inactive); in [2], > 100 µM (inactive); in test [3] it was > 100 µM (inactive); in test [4] it was > 100 µM (inactive); in test [5] it was > 100 µM (inactive); in [6], > 100 µM (inactive). Moreover, the GI50 in test [7], in test [8], in test [9], in test [10], in test [11] and in [12] was > 100 µM (inactive) throughout. For the same compound, the GI50 was > 100 µM (inactive) in test [13]; 36.6 µM (inactive) in test [15]; > 100 µM (inactive) in test [16]; > 100 µM (inactive) in test [17]; > 100 µM (inactive) in test [18].

For `CSc1ncc2c(n1)-c1ccccc1OC2`, the GI50 is 34.4 µM (inactive) in [1]; 53.1 µM (inactive) in test [2]; 39.7 µM (inactive) in test [3]; 13.3 µM (inactive) in test [4]; 61 µM (inactive) in test [5]; 51.3 µM (inactive) in test [6]. Further, the GI50 in [7] was 75.9 µM (inactive); in test [8], 26.5 µM (inactive); in [9] it was 38.8 µM (inactive); in [10], 56.4 µM (inactive); in test [11] it was 19.4 µM (inactive); in test [12], 71.3 µM (inactive). For the same compound, the GI50 in test [13] is 45.9 µM (inactive); in [15], 25.6 µM (inactive); in test [16], 43.6 µM (inactive); in test [17] it was > 100 µM (inactive); in test [18], 27.9 µM (inactive).

In the case of `COc1ccccc1C[C@@H]1OC2(C=CC(=O)C=C2)O[C@H]1Cc1ccccc1OC`, the GI50 in test [1] is 6.75 µM (inactive); in test [2] it was 8.99 µM (inactive); in [3], 9.64 µM (inactive); in test [4], 16.9 µM (inactive); in [5], 8.38 µM (inactive); in test [6] it was 10.2 µM (inactive). For the same compound, the GI50 in [7] was 9.95 µM (inactive); in test [8] it was 10 µM (inactive); in [9], 6.35 µM (inactive); in test [10] it was 8.69 µM (inactive); in test [11] it was 10.3 µM (inactive); in test [12] it was 8.38 µM (inactive). The GI50 in test [13] was 7.89 µM (inactive); in test [14], 9.71 µM (inactive); in [15], 9.55 µM (inactive); in [16] it was 9.04 µM (inactive); in [17], 8.11 µM (inactive); in [18], 8.09 µM (inactive).

`O=P1(N(CCCl)CCCl)Oc2ccc(Cl)cc2C(C(Cl)(Cl)Cl)c2cc(Cl)ccc2O1` (centres undefined): the GI50 was 10.9 µM (inactive) in test [19]; 11.4 µM (inactive) in [2]; 16.6 µM (inactive) in test [3]; 24.9 µM (inactive) in test [4]; 20.7 µM (inactive) in [5]; 13.7 µM (inactive) in [6]. For the same compound, the GI50 in [8] is 13.6 µM (inactive); in test [9], 10.9 µM (inactive); in test [10], 4.38 µM (inactive); in test [11], 16.5 µM (inactive); in [12], 14.8 µM (inactive); in [13] it was 15.5 µM (inactive). Moreover, the GI50 in [15] was 3.9 µM (inactive); in [16], 10.9 µM (inactive); in test [17] it was 18 µM (inactive); in test [18], 11.4 µM (inactive).

For `Cc1nc(C)c(C(=O)NNC(=O)Cc2ccccc2)cc1C(=O)NNC(=O)Cc1ccccc1`, the GI50 in [1], in test [19], in test [2], in test [3], in test [4] and in test [5] was > 100 µM (inactive) throughout. The GI50 in [6], in test [7], in [8], in test [9], in test [10] and in test [11] was > 100 µM (inactive) throughout. In addition, the GI50 was > 100 µM (inactive) in test [12]; > 100 µM (inactive) in [13]; > 100 µM (inactive) in test [15]; 94 µM (inactive) in test [16]; > 100 µM (inactive) in test [17]; > 100 µM (inactive) in test [18].

As to `COC(=O)Nc1nc2cc(S(=O)(=O)NC(CC(C)C)C(=O)OC)ccc2[nH]1` (centres undefined), the GI50 in [1] is 2.25 µM (inactive); in test [2] it was 0.7 µM (active); in test [3], 7.89 µM (inactive); in [4], 3.13 µM (inactive); in test [5] it was 4.83 µM (inactive); in test [6], 4.12 µM (inactive). For the same compound, the GI50 in test [7] was 2.45 µM (inactive); in test [8], 0.818 µM (active); in [9] it was 5.96 µM (inactive); in test [10] it was 2.37 µM (inactive); in [11] it was 3.66 µM (inactive); in test [12] it was 6.08 µM (inactive). Moreover, the GI50 was 11.1 µM (inactive) in [13]; 3.08 µM (inactive) in [14]; 2.83 µM (inactive) in [15]; 2.44 µM (inactive) in test [16]; 0.721 µM (active) in [18].

In the case of `O=C1/C(=C/c2ccc(Cl)cc2)NC(=S)N1CN1CCOCC1`, the GI50 is > 100 µM (inactive) in test [1]; > 100 µM (inactive) in test [2]; > 100 µM (inactive) in test [3]; 57.3 µM (inactive) in [4]; > 100 µM (inactive) in test [5]; > 100 µM (inactive) in [6]. In addition, the GI50 in [7], in test [8], in [9], in test [10], in test [12] and in test [13] was > 100 µM (inactive) each time. Moreover, the GI50 in test [14], in test [15], in test [16], in [17] and in [18] was > 100 µM (inactive) throughout.

Consider `CCC(C)C(NC(=O)C1CCCN1C(=O)C(CC(C)C)NC(=O)C(CC(C)C)NC(=O)C(N)CC(C)C)C(=O)NC(C(=O)NCC(=O)NC(CC(N)=O)C(=O)NC(CC(C)C)C(=O)NC(CC(C)C)C(=O)NC(CC(C)C)C(N)=O)C(C)C` (centres undefined) (H-LLLPIVGNLLL-NH2; configuration not given here), for which the GI50 in test [1], in test [2], in [3], in test [4], in test [5] and in test [6] was > 50 µM (inactive) each time. Besides, the GI50 in [7], in [8], in test [9], in test [10], in test [11] and in [12] was > 50 µM (inactive) in each case. For the same compound, the GI50 in [13], in test [14], in [15], in test [17] and in test [18] was > 50 µM (inactive) throughout.
